Reference: patent publication US20070031511A1, “Method of treatment” (priority 2003, published 2007)
Read-outs that look alike come from different tables or passages of the source. Where a SMILES comes first, the peptide text is derived from it. Where no end group is shown, it is not given here. [ ]: non-standard residue; d: D form. pGlu = O=C1CC[C@@H](C(=O)O)N1

Assays:
[1] = Solubility of peptides in NMR sample preparation; assay type: physicochemical; details: NMR sample conditions, pH 5.3
Description: For the subsequent experiments, samples were prepared for NMR spectroscopy by dissolving 2.5 mg of peptide in 0.6 ml of 10% DMSO/10% ^2H2O/80% H2O at 278 K. The pH was adjusted with small amounts of 1M NaO^2H or ^2HCl to pH 5.3. ^1H chemical shifts were referenced to 2,2-dimethyl-2-silapenthane-5-sulfonate at 0 ppm via the chemical shift of the H2O resonance or an impurity at 0.15 ppm. NMR spectra were recorded on Bruker DRX-600 and AMX-500 instruments, as described previously (Barnham et al, 1999).
The peptides LE5AYG, LE5A, E5AY and E5A (approximately 2 mM) were dissolved in H2O with 5 or 10% ^2H2O. […] Sequence-specific ^1H NMR resonance assignments were made from two-dimensional nuclear Overhauser enhancement spectroscopy (NOESY) and total correlation spectroscopy (TOCSY).

[2] = system: IMGE-5 cells; test: IMGE-5 cell proliferation, MTT assay; assay type: cell-based, mice; details: MTT assay, peptides shown at 1 nM (FIGS. 7A, 8A)
Description: (§1) The IMGE-5 cell line was established from the gastric mucosa of mice transgenic for a temperature-sensitive mutant of the SV40 large T antigen (Hollande et al, 2001). IMGE-5 cells were generally grown at 33° C. in DMEM containing 1 unit/ml γ-interferon, 10% FBS, 100 U/ml penicillin, and 100 μg/ml streptomycin (permissive conditions). For all experiments, cells were transferred to 39° C. in the same medium without […] (non-permissive conditions), where they display differentiated characteristics such as expression of functional adherens and tight junctions. All experiments have been performed on cells between passages 20 and 35.
A colorimetric assay was used to measure cell proliferation. Briefly, IMGE-5 cells were seeded in a 96-well plate at a density of 10^4 cells/well in DMEM containing 10% FBS and antibiotics. The following day, cells were synchronized in Go by incubation for 24 h in the same medium lacking FBS. The medium was replaced the next day with fresh medium containing 1% FBS and antibiotics and the peptides under investigation, and incubation was continued for 72 h. 15 μl of 5 mg/ml 3-(4,5-dimethylthiazol-2-yl)-2-5-diphenyltetrazolium bromide (MTT, Sigma, St Louis Mo.) was added per well, and the plate was incubated at 37° C. for 4 h before the medium was discarded. 200 μl 40 mM HCl in isopropanol was added to lyse the cells, and the absorbance at 570 nm was read on a BioRad Model 550 Microplate reader (BioRad, Hercules, Calif.).

[3] = Quenching of peptide tryptophan fluorescence by ferric ions (stoichiometry, apparent Kd); assay type: binding; details: 10 mM sodium acetate pH 4.0, 100 mM NaCl, 0.005% Tween 20; mean ± S.E.; read-out: Kd (μM), apparent dissociation constant for ferric ions
Description: The tryptophan fluorescence of peptide solutions was measured in 3 mL quartz cuvettes thermostated at […], with a Spex Fluorolog-2 spectrofluorimeter (Spex Industries, Edison, N.J.), with the excitation and emission wavelengths set at 290 and 345 nm, respectively. The quenching of tryptophan fluorescence induced by the binding of metal ions was used to calculate the fraction of binding sites occupied, fa: fa=(yf−y)/(yf−yb) where y is the fluorescence signal at a given concentration of metal ions and yb and yf are the signals when the binding sites are fully occupied and unoccupied, respectively (Winzor et al, 1995). The stoichiometry, p, and apparent dissociation constant, Kd, were then obtained, using the program Sigmastat (Jandel Scientific, San Rafael, Calif.), from the intercept and slope of a linear regression of the data transformed as described by Winzor and Sawyer (1995) in terms of the equation Cs/fa=pCa+Kd/(1−fa) where Cs is the total concentration of metal ions, and Ca is the total concentration of glycine-extended gastrin17. For the bismuth binding studies, the data was fitted by non-linear regression with the program Sigmaplot (Jandel Scientific, San Rafael, Calif.) to the equations for models with one binding site or two binding sites with identical affinities: fa=x/(Kd1+x) or to the model with two binding sites with different affinities: fa=(Kd1·x+Kd2·x+2x^2)/2(Kd1·Kd2+Kd1·x+Kd2·x+x^2) where x is the concentration of free metal ions, Kd1 is the first site dissociation constant and Kd2 is the second site dissociation constant. For the one-site model the value of x at any given total concentration of metal ions was obtained by exact solution of the appropriate quadratic (Malby et al, 2001). For the two-site models the value of x was obtained by an iterative Newton-Raphson procedure (Linse et al, 1991). Absorption Spectroscopy
The tryptophan fluorescence of progastrin6-80, glycine-extended gastrin17 and related peptides was measured in the presence of increasing concentrations of ferric ions in 10 mM sodium acetate, pH 4.0, 100 mM NaCl, 0.005% Tween 20. […] Values from the indicated number of independent experiments were combined to obtain the mean values (±S.E.) presented above. No binding of ferric ions to Ggly1-4 or Ggly12-18 was observed.
The tryptophan fluorescence of amidated gastrin17 and related peptides was measured in the presence of increasing concentrations of ferric ions at pH 4.0 (8). Values of the stoichiometry and the apparent dissociation constant (Kd) were obtained from linear transformations of the data presented in FIG. 20A by least squares fitting. Values from the indicated number of independent experiments were combined to obtain the mean values (±S.E.) presented above.

[4] = target: T1, recombinant human progastrin6-80 (Homo sapiens, UniProt P01350); test: Competition of metal ions with 59Fe3+ for binding to progastrin6-80; details: metal ions 100 μM, 59Fe3+ 10 μM, progastrin6-80 5.6 μM
T1 construct: made in house
T1 sequence (P01350 27-101): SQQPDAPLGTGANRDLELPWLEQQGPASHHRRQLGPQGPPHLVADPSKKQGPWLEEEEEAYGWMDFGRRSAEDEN
Description: In order to determine the specificity of the interaction between progastrin and metal ions, the binding of metal ions to recombinant human progastrin6-80 was determined by measuring their ability to compete with radioactive ^59Fe^3+ for binding to the protein by the following methods (Baldwin et al, 2001).
Progastrin6-80 (5.6 μM) in pH 2.8 buffer (10 mM sodium formate, pH 2.8, 100 mM NaCl, 0.005% Tween 20) was incubated for 30 min at 4° C. with ^59Fe^3+ ions (10 μM, 23.6 cpm/pmol) in the presence of several di- and trivalent metal ions (100 μM). Excess radioactivity was removed by overnight dialysis (SpectraPor dialysis tubing, molecular weight cut-off 3,500, Spectrum Labs., Rancho Dominguez, Calif.) at 4° C. against pH 4.0 buffer (10 mM sodium acetate, pH 4.0, 100 mM NaCl, 0.005% Tween 20), containing 1 µM EDTA. The radioactivity associated with progastrin6-80 was determined by counting aliquots of the internal and external solutions in a γ-counter (LKB-Wallac, Turku, Finland).

[5] = system: IMGE-5 cells; test: Wound healing / cell migration assay; assay type: cell-based, mice; details: wound healing assay, fragments and mutants shown at 1 nM (FIGS. 7B, 8B)
Description: as §1
In order to assess the effects of different stimuli on cell migration, wound healing experiments were performed as detailed elsewhere (Hollande et al, 1997). In brief, IMGE-5 cells were grown in 12-well plates in DMEM at 33° C. until they reached 80% confluence, then shifted to 39° C. and starved of serum for 24 h. The confluent monolayer was wounded using a 20 μl-pipette tip, and cells were then washed 3 times with phosphate-buffered saline (PBS: 2.7 mM KCl, 1.5 MM KH2PO4, 142 mM NaCl, and 10 mM Na2HPO4, pH 6.95) and treated with or without different compounds in DMEM with antibiotics. Morphology and migration of cells were observed and photographed immediately, and after treatment for 17 and 24 h. Wound width was measured at six different positions on the 24 h photographs, and averages calculated.

[6] = read-out: Apparent first dissociation constant of complex with ferric ions, cited from earlier work
[7] = system: rectal mucosa; test: Proliferation in the rectal mucosa of rectally defunctioned rats (metaphase-arrested cells); assay type: in vivo; details: infused intraperitoneally 2.5 nmol/kg/hr, 4 weeks
Description: DFO (400 mg/kg) was administered intraperitoneally thrice weekly, and bismuth ions were administered as colloidal bismuth subcitrate (135 mg/kg/12 hours) by oral gavage 5 days per week. After 4 weeks, the rats were injected with vincristine to arrest cycling cells in metaphase, and sacrificed 3 hrs later. Crypt heights in the rectal mucosa, and the number of metaphase arrested cells per crypt, were then determined microscopically.

[8] = pH 4.0; Ref. 8 given in table; read-out: Kd (μM), apparent dissociation constant for ferric ions; cited from earlier work

In the case of `CSCC[C@H](NC(=O)[C@H](Cc1c[nH]c2ccccc12)NC(=O)CNC(=O)[C@H](Cc1ccc(O)cc1)NC(=O)[C@H](C)NC(=O)[C@H](C)NC(=O)[C@H](C)NC(=O)[C@H](C)NC(=O)[C@H](CCC(=O)O)NC(=O)[C@H](CCC(=O)O)NC(=O)[C@H](CC(C)C)NC(=O)[C@H](Cc1c[nH]c2ccccc12)NC(=O)[C@@H]1CCCN1C(=O)CNC(=O)[C@@H]1CCC(=O)N1)C(=O)N[C@@H](CC(=O)O)C(=O)N[C@@H](Cc1ccccc1)C(=O)NCC(=O)O` [GglyE8-10A] ([pGlu]GPWLEEAAAAYGWMDFG-OH), the Solubility [1] is reported as “Poor solubility”, the “Stimulation of IMGE-5 cell proliferation” value [2] is reported as “active in proliferation assays, although less so than Ggly” and the Kd [3] is reported as 0.37 ± 0.07 µM.

For `[Fe+3]` [ferric ions], the “Ability to compete with 59Fe3+ for binding to progastrin6-80” value [4] was “able to compete effectively”.

With `CSCC[C@H](NC(=O)[C@H](Cc1c[nH]c2ccccc12)NC(=O)CNC(=O)[C@H](Cc1ccc(O)cc1)NC(=O)[C@H](C)NC(=O)[C@H](C)NC(=O)[C@H](C)NC(=O)[C@H](C)NC(=O)[C@H](C)NC(=O)[C@H](C)NC(=O)[C@H](CC(C)C)NC(=O)[C@H](Cc1c[nH]c2ccccc12)NC(=O)[C@@H]1CCCN1C(=O)CNC(=O)[C@@H]1CCC(=O)N1)C(=O)N[C@@H](CC(=O)O)C(=O)N[C@@H](Cc1ccccc1)C(=O)NCC(=O)O` [GglyE6-10A] ([pGlu]GPWLAAAAAAYGWMDFG-OH) the “Stimulation of IMGE-5 cell migration” value [5] was “inactive”, the Solubility [1] was “Poor solubility” and the “Stimulation of IMGE-5 cell proliferation” value [2] was “inactive”. The Kd [3] was 1.2 ± 0.11 µM.

In the case of `O=C(O)CN(CC(=O)O)CC(=O)O` [nitrilotriacetic acid], the Kd ([6]; pH 4.0) is given as 0.83 µM and the Kd ([6]; pH 7.6) is given as 0.00019 µM.

With “GglyE7A: Ggly mutant, Glu7 replaced by Ala, SEQ ID NO:11 ([pGlu]GPWLEAEEEAYGWMDFG; ends and bridges not checked)” the “Stimulation of IMGE-5 cell migration” value [5] was “inactive”, the “Stimulation of rectal mucosal proliferation” value [7] was “able to stimulate mucosal proliferation as well as Ggly” and the “Stimulation of IMGE-5 cell proliferation” value [2] was “inactive”. For the same molecule, the Kd [3] was 0.2 ± 0.01 µM.

For “LE5AYGWMDFG (LEEEEEAYGWMDFG; listed as Homo sapiens) [Ggly5-18]”, the “Stimulation of IMGE-5 cell migration” value [5] is given as “to the same extent as Ggly”, the “Stimulation of IMGE-5 cell migration” value ([5]; listed as LE5AYGWMDFG) is given as “fully active” and the Kd [8] is given as 0.58 ± 0.19 µM. For the same molecule, the “Stimulation of IMGE-5 cell proliferation” value [2] was “to the same extent as Ggly” and the “Stimulation of IMGE-5 cell proliferation” value ([2]; listed as LE5AYGWMDFG) was “fully active”.

With `[Fe+2]` [ferrous ions] the “Ability to compete with 59Fe3+ for binding to progastrin6-80” value [4] was “able to compete effectively”.
